Source: patent publication US7687620B2, “[1,4]diazepino[6,7,1-IJ]quinoline derivatives as antipsychotic and antiobesity agents” (Wyeth LLC, priority 2002, dated 2010)
pEC50, pKd, pKi: −log10 of the molar value. Structures can show the parent of a compound that is named as a salt. Where two headings read alike, the source gives them in different places.

Tests used:
[1] = biological target: T1, human 5-hydroxytryptamine2C (h5HT2C) receptor (Homo sapiens, UniProt P28335); assay: 5HT2C receptor binding ([125I]DOI displacement, CHO cell membranes)
T1 construct: expressed in transfected cells; host or cells: CHO (Chinese Hamster Ovary) cells; membrane preparation
T1 sequence (P28335 33-458): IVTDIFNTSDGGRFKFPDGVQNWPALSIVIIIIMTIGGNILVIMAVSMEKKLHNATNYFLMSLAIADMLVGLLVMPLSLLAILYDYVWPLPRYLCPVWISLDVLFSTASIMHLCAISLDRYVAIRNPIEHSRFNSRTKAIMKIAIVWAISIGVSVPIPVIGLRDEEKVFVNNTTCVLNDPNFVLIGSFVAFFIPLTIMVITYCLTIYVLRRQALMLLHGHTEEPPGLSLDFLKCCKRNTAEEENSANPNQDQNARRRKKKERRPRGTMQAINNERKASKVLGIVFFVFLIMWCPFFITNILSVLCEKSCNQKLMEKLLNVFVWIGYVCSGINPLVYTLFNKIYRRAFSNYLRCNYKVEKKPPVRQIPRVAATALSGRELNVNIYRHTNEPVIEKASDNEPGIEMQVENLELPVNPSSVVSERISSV

human 5-HT2C receptor = biological target: T2, human 5-HT2C receptor (Homo sapiens, UniProt P28335); assay: Calcium mobilization in response to 5-HT2C receptor agonists (FLIPR, CHO cells); format: cell-based; conditions: for Emax: CHO, read-out: 5-HT2C Function Emax (%) (5-HT, 100%); for pEC50: calcium mobilization, CHO cells stably expressing human 5-HT2C, read-out: 5-HT2C Function EC50
T2 sequence (P28335 33-458): T1 sequence (P28335 33-458)

| Compound | pKi [1] | further results |
| --- | --- | --- |
| c1cc2c3c(c1)C1CCCC1CN3CCNC2 (single isomer, unassigned; (-)) [Example 4, (−)-4,5,6,7,9,9a10,11,12,12a-decahydrocyclopenta[c][1,4]diazepino[6,7,1-ij]quinoline] | 8.52 | Emax (human 5-HT2C receptor): 100%; pEC50 (human 5-HT2C receptor): 8.10 |
| c1cc2c3c(c1)C1CCCCC1CN3CCNC2 (stereo not shown) [Example 6, 4,5,6,7,9a,10,11,12,13,13a-decahydro-9H-[1,4]diazepino[6,7,1-de]phenanthridine hydrochloride] | 7.62 | Emax (human 5-HT2C receptor): 60%; pEC50 (human 5-HT2C receptor): 7.19 |
| c1cc2c3c(c1)C1CCCCCC1CN3CCNC2 (stereo not shown) [Example 8, 4,5,6,7,9,9a,10,11,12,13,14,14a-dodecahydrocyclohepta[c][1,4]diazepino[6,7,1-ij]quinoline] | 7.89 | Emax (human 5-HT2C receptor): 70%; pEC50 (human 5-HT2C receptor): 6.58 |
| c1cc2c3c(c1)[C@H]1CCCCC[C@H]1CN3CCNC2 [Example 10, (9aR,14aS)-4,5,6,7,9,9a10,11,12,13,14,14a-dodecahydrocyclohepta[c][1,4]diazepino[6,7,1-ij]quinoline hydrochloride] | 7.25 |  |
| c1cc2c3c(c1)[C@@H]1CCCCC[C@@H]1CN3CCNC2 [Example 12, (9aS,14aR)-4,5,6,7,9,9a,10,11,12,13,14,14a-dodecahydrocyclohepta[c][1,4]diazepino[6,7,1-ij]quinoline hydrochloride] | 6.93 |  |
| Brc1cc2c3c(c1)C1CCCCCC1CN3CCNC2 (stereo not shown) [Example 16, 2-bromo-4,5,6,7,9,9a,10,11,12,13,14,14a-dodecahydrocyclohepta[c][1,4]diazepino[6,7,1-ij]quinoline hydrochloride] | 5.64 |  |
| Clc1cc2c3c(c1)C1CCCCCC1CN3CCNC2 (stereo not shown) [Example 20, 2-chloro-4,5,6,7,9,9a,10,11,12,13,14,14a-dodecahydrocyclohepta[c][1,4]diazepino[6,7,1-ij]quinoline hydrochloride] | 6.43 |  |
| c1ccc(-c2cc3c4c(c2)C2CCCC2CN4CCNC3)cc1 (stereo not shown) [Example 22, 2-phenyl-4,5,6,7,9,9a,10,11,12,12a-decahydrocyclopenta[c][1,4]diazepino[6,7,1-ij]quinoline hydrochloride] | 7.06 |  |
| COc1cc2c3c(c1)C1CCCC1CN3CCNC2 (stereo not shown) [Example 24, 2-methoxy-4,5,6,7,9,9a,10,11,12,12a-decahydrocyclopenta[c][1,4]diazepino[6,7,1-ij]quinoline hydrochloride] | 6.70 |  |
| Fc1ccc2c3c1C1CCCC1CN3CCNC2 (stereo not shown) [Example 26, 1-fluoro-4,5,6,7,9,9a,10,11,12,12a-decahydrocyclopenta[c][1,4]diazepino[6,7,1-ij]quinoline hydrochloride] | 7.70 |  |
| Fc1ccc2c3c1C1CCCCCC1CN3CCNC2 (stereo not shown) [Example 28, 1-fluoro-4,5,6,7,9,9a,10,11,12,13,14,14a-dodecahydrocyclohepta[c][1,4]diazepino[6,7,1-ij]quinoline hydrochloride] | 6.77 |  |
| FC(F)(F)c1ccc2c3c1C1CCCC1CN3CCNC2 (stereo not shown) [Example 30, 1-(trifluoromethyl)-4,5,6,7,9,9a,10,11,12,12a-decahydrocyclopenta[c][1,4]diazepino[6,7,1-ij]quinoline hydrochloride] | 7.23 |  |
| COc1cc2c3c(c1F)C1CCCC1CN3CCNC2 (stereo not shown) [Example 32, 1-fluoro-2-methoxy-4,5,6,7,9,9a,10,11,12,12a-decahydrocyclopenta[c][1,4]diazepino[6,7,1-ij]quinoline hydrochloride] | 6.65 |  |
| COc1cc2c3c(c1F)C1CCCCCC1CN3CCNC2 (stereo not shown) [Example 34, 1-fluoro-2-methoxy-4,5,6,7,9,9a,10,11,12,13,14,14a-dodecahydrocyclohepta[c][1,4]diazepino[6,7,1-ij]quinoline hydrochloride] | 6.60 |  |
| CSc1ccc2c(c1)C(N1CCN(C)CC1)Cc1ccccc1S2 (stereo not shown) [Methiothepin, reference compound] |  | pKi ([1]; [125I]DOI binding, CHO membranes expressing h5HT2C, 95% confidence interval in brackets, read-out: Ki (95% confidence interval), reference compounds): 8.34 |
| COc1cc(CC(C)N)c(OC)cc1I (stereo not shown) [[^125I]DOI, reference compound] |  | pKd ([1]; read-out: dissociation constant, KD of [125I]DOI at the human serotonin 5HT2C receptor, saturation binding with increasing concentrations of [125I]DOI): 9.40 |
